Test results reported in PubChem BioAssay AID2060619 (Molecular Pharmacology Branch, DTP, NCI, 2025).

System: 323965-272-R-J2-PDC complex spheroid viability
Test: Anticancer human tumor 323965-272-R-J2-PDC patient-derived pancreatic carcinoma cell line growth inhibition [CLK]
Conditions: for IC50: curve of first compound; for viability, T/C: stronger effect = lower value; active means viability on the fitted dose curve at most 10% of control; inactive means the rest
Source text: A high-throughput screen of multi-cell type tumor spheroids was designed to identify active combinations of […] and targeted small molecules. Complex spheroids include a stromal component modeled by human endothelial cells (HUVEC) and fibroblasts modeled by human mesenchymal stem cells (MSCs). The concentration ranges selected for each drug and investigational agent were based upon clinically achievable concentrations if the clinical Cmax of the agent was known.
Compounds. The drugs and investigational agents: cirtuvivint (SM08502; NSC835563), CC-671 (NSC850746), vemurafenib (NSC761431), tapotoclax (NSC804041), sotorasib (NSC818433), adagrasib (NSC831453), MRTX-1133 (NSC836407), BAY2416964 (NSC825713), copanlisib (NSC816437), inavolisib (NSC800729), abemaciclib (NSC768073), osimertinib (NSC779217), entinostat (NSC756642), eltanexor (KPT-8602, NSC794443), venetoclax (NSC766270), ceralasertib (NSC777638), bortezomib (NSC756655), olaparib (NSC753686), talazoparib (NSC767125), alisertib (NSC759677), peposertib (NSC802822), gemcitabine (NSC613327), 5-fluorouracil (NSC19893), SN-38 (NSC673596), oxaliplatin (NSC266046), paclitaxel (NSC125973), and doxorubicin (NSC123127), were obtained from the National Cancer Institute (NCI) Developmental Therapeutics Program Chemical Repository. The FDA-approved anticancer drug set is available from the Developmental Therapeutics Program at https://dtp.cancer.gov/organization/dscb/obtaining/available plates.htm. […] The stock solutions were prepared in dimethyl sulfoxide (DMSO, Sigma-Aldrich, St. Louis, MO, cat. D2650), except for the platinum complexes which were prepared in saline (Quality Biological, Gaithersburg, MD, cat. 114-055-101), at 800-fold the tested concentration and stored at -70 degrees C prior to their use. All drugs and investigational agents were tested over a range starting from a high concentration at or near the clinical Cmax and decreasing in half-log increments. If the clinical Cmax for an agent had not been determined, the highest concentration tested was 10 microM.
Cell Culture. All cells were maintained in an incubator at 37 degrees C and 5% CO2 with 95% humidity. The PDC lines were cultured according to standard operating procedures established by the NCI PDMR. Briefly, all PDCs were thawed and cultured in Matrigel-coated flasks prepared with a working solution of 1X Ham's F-12 nutrient mix, without supplementation (Invitrogen, Waltham, MA, cat. 11765054), 100 U/mL penicillin-streptomycin (Invitrogen, cat. 15140122), and 2.5% Matrigel (Corning Inc., Corning, NY, cat. 354248) for the first three passages. The 947758-054-R-J2-PDC line was cultured in 6B/Colon 1A media, which includes advanced DMEM/F-12 (Thermo Fisher Scientific, cat. 12634028), 10 mM HEPES (Thermo Fisher Scientific, cat. 15630080), 1X GlutaMAX supplement (Thermo Fisher Scientific, cat. 35050061), 0.1 mg/mL primocin (InvivoGen, cat. ant-pm-2), 10% defined fetal bovine serum, heat inactivated (HyClone Laboratories Inc., cat. SH30070.03HI), 1.25 mM N-Acetyl-L-cysteine (Sigma-Aldrich, cat. A9165), 10 mM nicotinamide (Sigma-Aldrich, cat. N0636), 1X B-27 supplement (Thermo Fisher Scientific, cat. 17504044), 1X N-2 supplement (Thermo Fisher Scientific, cat. 17502048), and 10 microM Y-27632 dihydrochloride (Tocris Bioscience, cat. 1254). The 876862-298-R-J1-PDC was cultured in 6E media, which includes all 6B/Colon 1A media components plus 50% L-WRN conditioned media (ATCC, cat. CRL-3276), 50 ng/mL recombinant human EGF recombinant protein (hEGF; Thermo Fisher Scientific, cat. PHG0311), 10 ng/mL recombinant human fibroblast growth factor 10 (hGFG-10; PeproTech, cat. 100-26), 1 ng/mL recombinant human fibroblast growth factor 2 (hFGF-2; PeproTech, cat. 100-18B), and 1 µM prostaglandin E2 (PGE2; Tocris, cat. 2296). The 227483-062-R1-J1-PDC line was cultured in Panc media, containing all 6E components except hFGF-2, with the addition of 500 nM SB-431542 (Selleckchem, cat. S1067) and 10 nM gastrin (Tocris, cat. 3006). […]

[1] = second compound 0.0316 µM, first compound 0.0316 µM
[2] = second compound 0.0316 µM, first compound 0.1 µM
[3] = second compound 0.0316 µM, first compound 0.316 µM
[4] = second compound 0.0316 µM, first compound 1 µM
[5] = second compound 0.0316 µM, first compound 3.16 µM
[6] = second compound 0.0316 µM, first compound 10 µM
[7] = second compound 0.1 µM, first compound 0.0316 µM
[8] = second compound 0.1 µM, first compound 0.1 µM
[9] = second compound 0.1 µM, first compound 0.316 µM
[10] = second compound 0.1 µM, first compound 1 µM
[11] = second compound 0.1 µM, first compound 3.16 µM
[12] = second compound 0.1 µM, first compound 10 µM
[13] = second compound 0.316 µM, first compound 0.0316 µM
[14] = second compound 0.316 µM, first compound 0.1 µM
[15] = second compound 0.316 µM, first compound 0.316 µM
[16] = second compound 0.316 µM, first compound 1 µM
[17] = second compound 0.316 µM, first compound 3.16 µM
[18] = second compound 0.316 µM, first compound 10 µM
[19] = second compound 1 µM, first compound 0.0316 µM
[20] = second compound 1 µM, first compound 0.1 µM
[21] = second compound 1 µM, first compound 0.316 µM
[22] = second compound 1 µM, first compound 1 µM
[23] = second compound 1 µM, first compound 3.16 µM
[24] = second compound 1 µM, first compound 10 µM
[25] = second compound 3.16 µM, first compound 0.0316 µM
[26] = second compound 3.16 µM, first compound 0.1 µM
[27] = second compound 3.16 µM, first compound 0.316 µM
[28] = second compound 3.16 µM, first compound 1 µM
[29] = second compound 3.16 µM, first compound 3.16 µM
[30] = second compound 3.16 µM, first compound 10 µM
[31] = second compound 10 µM, first compound 0.0316 µM
[32] = second compound 10 µM, first compound 0.1 µM
[33] = second compound 10 µM, first compound 0.316 µM
[34] = second compound 10 µM, first compound 1 µM
[35] = second compound 10 µM, first compound 3.16 µM
[36] = second compound 10 µM, first compound 10 µM
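Further: spheroids exposed to agents for seven days before readout.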
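Wherever viability, T/C is given: percent of DMSO vehicle control wells so 100% = untreated growth.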

CC(CO)NC(=O)c1cc(-c2ccc(Cl)cc2)nn(-c2cnn(C)c2)c1=O (centres undefined) + CN1CCN(c2cc(C(=O)Nc3cc4cc(-c5cnn(C)c5)ccc4cn3)ccn2)CC1
< 0.0316 µM: IC50 (second compound 0.316 µM) | IC50 (second compound 1 µM) | IC50 (second compound 3.16 µM) | IC50 (second compound 10 µM)
inactive: viability, T/C [1] 97.3% | viability, T/C [2] 102% | viability, T/C [3] 103% | viability, T/C [4] 87.4% | viability, T/C [5] 112% | viability, T/C [6] 113% | viability, T/C [7] 68% | viability, T/C [8] 80.5% | viability, T/C [9] 83.1% | viability, T/C [10] 72.5% | viability, T/C [11] 76% | viability, T/C [12] 89.5% | viability, T/C [13] 25.8% | viability, T/C [14] 27.2% | viability, T/C [15] 25% | viability, T/C [16] 22.3% | viability, T/C [17] 28.2% | viability, T/C [18] 32.8%
> 10 µM: IC50 (second compound 0.0316 µM) | IC50 (second compound 0.1 µM)
active: viability, T/C [19] 3.75% | viability, T/C [20] 3.59% | viability, T/C [21] 4.21% | viability, T/C [22] 3.61% | viability, T/C [23] 3.03% | viability, T/C [24] 3.2% | viability, T/C [25] 4.17% | viability, T/C [26] 3.62% | viability, T/C [27] 3.4% | viability, T/C [28] 3.82% | viability, T/C [29] 4.87% | viability, T/C [30] 4.3% | viability, T/C [31] 4.55% | viability, T/C [32] 5.29% | viability, T/C [33] 4.22% | viability, T/C [34] 3.24% | viability, T/C [35] 3.64% | viability, T/C [36] 3.17%

C=CC(=O)N1CCN(c2nc(=O)n(-c3c(C)ccnc3C(C)C)c3nc(-c4c(O)cccc4F)c(F)cc23)C(C)C1 (centres undefined) + CNC(=O)c1ccc(Nc2nc(OC3CCCC3)c3c(-c4ccc5nc(C)oc5c4)c[nH]c3n2)c(OC)c1
inactive: viability, T/C [1] 61.4% | viability, T/C [2] 66.7% | viability, T/C [3] 66.9% | viability, T/C [4] 73.9% | viability, T/C [5] 69% | viability, T/C [6] 76.4% | viability, T/C [7] 66.6% | viability, T/C [8] 59.5% | viability, T/C [9] 59.1% | viability, T/C [10] 55.4% | viability, T/C [11] 59.5% | viability, T/C [12] 58.7% | viability, T/C [13] 44.8% | viability, T/C [14] 41.1% | viability, T/C [15] 39.7% | viability, T/C [16] 47.8% | viability, T/C [17] 45.1% | viability, T/C [18] 44.4% | viability, T/C [19] 28.3% | viability, T/C [20] 25.1% | viability, T/C [21] 24.4% | viability, T/C [22] 27.9% | viability, T/C [23] 28.2% | viability, T/C [24] 29% | viability, T/C [25] 26.9% | viability, T/C [26] 25.8% | viability, T/C [27] 28.5% | viability, T/C [28] 23.9% | viability, T/C [29] 26.6% | viability, T/C [30] 30.3% | viability, T/C [31] 23.2% | viability, T/C [32] 21.4% | viability, T/C [33] 26.9% | viability, T/C [34] 24.4% | viability, T/C [35] 27.1% | viability, T/C [36] 28.6%
> 10 µM: IC50 (second compound 0.0316 µM) | IC50 (second compound 0.1 µM)
< 0.0316 µM: IC50 (second compound 0.316 µM) | IC50 (second compound 1 µM) | IC50 (second compound 3.16 µM) | IC50 (second compound 10 µM)
